Converted amounts (≈) assume the structure as drawn.
Columns and labels:
Assay in all cases: Bacterial growth minimal inhibitory concentration (microdilution, cation-adjusted Mueller-Hinton Broth)
Format in all cases: cell-based
[1] = test system: E. coli ATCC25922; settings: quinolone-sensitive strain; for MIC: Escherichia coli, ATCC25922, read-out: MIC for E. coli ATCC25922
Description: (§1) Minimal Inhibitory Concentrations (MICs; mg/L) were determined in cation-adjusted Mueller-Hinton Broth by a microdilution method following the description given in “Methods for Dilution Antimicrobial Susceptibility Tests for Bacteria that Grow Aerobically”, Approved standard, 7th ed., a Clinical and Laboratory Standards Institute (CLSI) Document M7-A7, Wayne, Pa., USA (2006).
(§2) All Example compounds were tested against several Gram-positive and Gram-negative bacteria. […] K. pneumoniae A-651 is a multiply-resistant strain (in particular quinolone-resistant), while E. coli ATCC25922 and P. aeruginosa ATCC27853 are quinolone-sensitive strains.

[2] = test system: P. aeruginosa ATCC27853; settings: for MIC: Pseudomonas aeruginosa, ATCC27853, quinolone-sensitive strain, read-out: MIC for P. aeruginosa ATCC27853
Description: as §1, §2

[3] = test system: K. pneumoniae A-651; settings: multiply-resistant strain (in particular quinolone-resistant); for MIC: Klebsiella pneumoniae, A651, read-out: MIC for K. Pneumoniae A-651
Description: as §1, §2

MIC [1]	MIC [2]	MIC [3]	MIC for E. coli ATCC25922 [1]	MIC for P. aeruginosa ATCC27853 ([2]; quinolone-sensitive strain)	MIC for K. Pneumoniae A-651 [3]	Structure (SMILES)
0.5 µg/mL	4 µg/mL	1 µg/mL	–	–	–	C[C@@](CCN1Cc2cc(C#CC#CC(CO)C3CCC3)cn2C1=O)(C(=O)NO)S(C)(=O)=O (mixture of isomers) [Example 60, (2R)-4-(6-((5RS)-5-cyclobutyl-6-hydroxyhexa-1,3-diyn-1-yl)-3-oxo-1H-pyrrolo[1,2-c]imidazol-2(3H)-yl)-N-hydroxy-2-methyl-2-(methylsulfonyl)butanamide]
8 µg/mL (≈ 17.3 µM)	16 µg/mL (≈ 34.5 µM)	16 µg/mL (≈ 34.5 µM)	–	–	–	CC(CCN1Cc2cc(-c3ccc(C4(O)COC4)cc3)cn2C1=O)(C(=O)NO)S(C)(=O)=O (racemic) [RE1, (RS)—N-hydroxy-4-(6-(4-(3-hydroxyoxetan-3-yl)phenyl)-3-oxo-1H-pyrrolo[1,2-c]imidazol-2(3H)-yl)-2-methyl-2-(methylsulfonyl)butanamide]
2 µg/mL (≈ 3.99 µM)	8 µg/mL (≈ 15.9 µM)	2 µg/mL (≈ 3.99 µM)	–	–	–	CCOC(C)(C)c1ccc(C#Cc2cc3n(c2)C(=O)N(CCC(C)(C(=O)NO)S(C)(=O)=O)C3)cc1 (racemic) [RE2, (RS)-4-(6-((4-(2-ethoxypropan-2-yl)phenyl)ethynyl)-3-oxo-1H-pyrrolo[1,2-c]imidazol-2(3H)-yl)-N-hydroxy-2-methyl-2-(methylsulfonyl)butanamide]
0.5 µg/mL (≈ 1.08 µM)	4 µg/mL (≈ 8.63 µM)	1 µg/mL (≈ 2.16 µM)	–	–	–	CC(CCN1Cc2cc(C#Cc3ccc(CO)cc3F)cn2C1=O)(C(=O)NO)S(C)(=O)=O (racemic) [RE3, (RS)-4-(6-((2-fluoro-4-(hydroxymethyl)phenyl)ethynyl)-3-oxo-1H-pyrrolo[1,2-c]imidazol-2(3H)-yl)-N-hydroxy-2-methyl-2-(methylsulfonyl)butanamide]
0.25 µg/mL (≈ 0.528 µM)	2 µg/mL (≈ 4.22 µM)	0.5 µg/mL (≈ 1.06 µM)	–	–	–	CC(C)(O)C#Cc1ccc(-c2cc3n(c2)C(=O)N(CCC(C)(C(=O)NO)S(C)(=O)=O)C3)cc1 (racemic) [RE4, (RS)—N-hydroxy-4-(6-(4-(3-hydroxy-3-methylbut-1-yn-1-yl)phenyl)-3-oxo-1H-pyrrolo[1,2-c]imidazol-2(3H)-yl)-2-methyl-2-(methylsulfonyl)butanamide]
2 µg/mL (≈ 4.75 µM)	4 µg/mL (≈ 9.49 µM)	8 µg/mL (≈ 19 µM)	–	–	–	CC(C)(O)C#CC#Cc1cc2n(c1)C(=O)N(CCC(C)(C(=O)NO)S(C)(=O)=O)C2 (racemic) [RE5, (RS)—N-hydroxy-4-(6-(5-hydroxy-5-methylhexa-1,3-diyn-1-yl)-3-oxo-1H-pyrrolo[1,2-c]imidazol-2(3H)-yl)-2-methyl-2-(methylsulfonyl)butanamide]
2 µg/mL (≈ 3.79 µM)	2 µg/mL (≈ 3.79 µM)	8 µg/mL (≈ 15.2 µM)	–	–	–	CN1CCN(Cc2ccc(C#Cc3cc4n(c3)C(=O)N(CCC(C)(C(=O)NO)S(C)(=O)=O)C4)cc2)CC1 (racemic) [RE6, (RS)—N-hydroxy-2-methyl-4-(6-((4-((4-methylpiperazin-1-yl)methyl)phenyl)ethynyl)-3-oxo-1H-pyrrolo[1,2-c]imidazol-2(3H)-yl)-2-(methylsulfonyl)butanamide]
4 µg/mL (≈ 8.86 µM)	8 µg/mL (≈ 17.7 µM)	8 µg/mL (≈ 17.7 µM)	–	–	–	CC(CCN1Cc2cc(-c3ccc(OCCO)cc3)cn2C1=O)(C(=O)NO)S(C)(=O)=O (racemic) [RE7, (RS)—N-hydroxy-4-(6-(4-(2-hydroxyethoxy)phenyl)-3-oxo-1H-pyrrolo[1,2-c]imidazol-2(3H)-yl)-2-methyl-2-(methylsulfonyl)butanamide]
2 µg/mL (≈ 4.3 µM)	8 µg/mL (≈ 17.2 µM)	2 µg/mL (≈ 4.3 µM)	–	–	–	COCCOc1ccc(-c2cc3n(c2)C(=O)N(CCC(C)(C(=O)NO)S(C)(=O)=O)C3)cc1 (racemic) [RE8, (RS)—N-hydroxy-4-(6-(4-(2-methoxyethoxy)phenyl)-3-oxo-1H-pyrrolo[1,2-c]imidazol-2(3H)-yl)-2-methyl-2-(methylsulfonyl)butanamide]
0.125 µg/mL (≈ 0.295 µM)	0.5 µg/mL (≈ 1.18 µM)	2 µg/mL (≈ 4.72 µM)	–	–	–	Cc1ccc(-c2cc3n(c2)C(=O)N(CCC(C)(C(=O)NO)S(C)(=O)=O)C3)c(F)c1 (racemic) [RE9, (RS)-4-(6-(2-fluoro-4-methylphenyl)-3-oxo-1H-pyrrolo[1,2-c]imidazol-2(3H)-yl)-N-hydroxy-2-methyl-2-(methylsulfonyl)butanamide]
0.25 µg/mL (≈ 0.535 µM)	2 µg/mL (≈ 4.28 µM)	8 µg/mL (≈ 17.1 µM)	–	–	–	CC(C)Oc1ccc(-c2cc3n(c2)C(=O)N(CCC(C)(C(=O)NO)S(C)(=O)=O)C3)cc1F (racemic) [RE10, (RS)-4-(6-(3-fluoro-4-isopropoxyphenyl)-3-oxo-1H-pyrrolo[1,2-c]imidazol-2(3H)-yl)-N-hydroxy-2-methyl-2-(methylsulfonyl)butanamide]
0.125 µg/mL (≈ 0.277 µM)	1 µg/mL (≈ 2.21 µM)	0.5 µg/mL (≈ 1.11 µM)	–	–	–	C[C@@](CCN1Cc2cc(C#CC#C[C@@]3(F)C[C@@H]3CO)cn2C1=O)(C(=O)NO)S(C)(=O)=O (relative stereo) [Example 66, (R)-4-(6-(((1R*,2R*)-1-fluoro-2-(hydroxymethyl)cyclopropyl)buta-1,3-diyn-1-yl)-3-oxo-1H-pyrrolo[1,2-c]imidazol-2(3H)-yl)-N-hydroxy-2-methyl-2-(methylsulfonyl)butanamide]
–	–	–	0.125 µg/mL	0.5 µg/mL	0.5 µg/mL	C[C@@](CCN1Cc2cc(C#CC#C[C@@]3(F)C[C@@H]3CO)cn2C1=O)(C(=O)NO)S(C)(=O)=O (relative stereo) [Example 67, (R)-4-(6-(((1R*,2R*)-1-fluoro-2-(hydroxymethyl)cyclopropyl)buta-1,3-diyn-1-yl)-3-oxo-1H-pyrrolo[1,2-c]imidazol-2(3H)-yl)-N-hydroxy-2-methyl-2-(methylsulfonyl)butanamide]
0.25 µg/mL (≈ 0.554 µM)	0.5 µg/mL (≈ 1.11 µM)	0.5 µg/mL (≈ 1.11 µM)	–	–	–	C[C@@](CCN1Cc2cc(C#CC#C[C@H]3C[C@]3(F)CO)cn2C1=O)(C(=O)NO)S(C)(=O)=O (single isomer, unassigned) [Example 78]
0.25 µg/mL (≈ 0.554 µM)	0.5 µg/mL (≈ 1.11 µM)	0.25 µg/mL (≈ 0.554 µM)	–	–	–	C[C@@](CCN1Cc2cc(C#CC#C[C@@H]3C[C@@]3(F)CO)cn2C1=O)(C(=O)NO)S(C)(=O)=O (single isomer, unassigned) [Example 79]
0.125 µg/mL (≈ 0.284 µM)	1 µg/mL (≈ 2.28 µM)	≤ 0.063 µg/mL	–	–	–	COc1ccc(-c2cc3n(c2)C(=O)N(CC[C@](C)(C(=O)NO)S(C)(=O)=O)C3)c(F)c1 [Example 1, (R)-4-(6-(2-fluoro-4-methoxyphenyl)-3-oxo-1H-pyrrolo[1,2-c]imidazol-2(3H)-yl)-N-hydroxy-2-methyl-2-(methylsulfonyl)butanamide]
0.5 µg/mL (≈ 1.03 µM)	1 µg/mL (≈ 2.05 µM)	1 µg/mL (≈ 2.05 µM)	–	–	–	C[C@@](CCN1Cc2cc(C#Cc3ccc(C4(O)COC4)cc3)cn2C1=O)(C(=O)NO)S(C)(=O)=O [Example 2, (R)-N-hydroxy-4-(6-((4-(3-hydroxyoxetan-3-yl)phenyl)ethynyl)-3-oxo-1H-pyrrolo[1,2-c]imidazol-2(3H)-yl)-2-methyl-2-(methylsulfonyl)butanamide]
0.125 µg/mL (≈ 0.281 µM)	2 µg/mL (≈ 4.49 µM)	0.5 µg/mL (≈ 1.12 µM)	–	–	–	C[C@@](CCN1Cc2cc(C#Cc3ccc(CO)cc3)cn2C1=O)(C(=O)NO)S(C)(=O)=O [Example 3, (R)-N-hydroxy-4-(6-((4-(hydroxymethyl)phenyl)ethynyl)-3-oxo-1H-pyrrolo[1,2-c]imidazol-2(3H)-yl)-2-methyl-2-(methylsulfonyl)butanamide]

Reference: US10106544B2, “1,2-dihydro-3H-pyrrolo[1,2-C]imidazol-3-one derivatives and their use as antibacterial agents” (priority 2014, dated 2018)
